Measured values taken from article PMC9077246, “Novel spirocyclic tranylcypromine derivatives as lysine-specific demethylase 1 (LSD1) inhibitors” (RSC Advances, 2018).

Key:
MAO-A [1] = target: T1, MAO-A (Homo sapiens, UniProt P21397); conditions: IC50 values for LSD1 vs. MAO-A
T1 sequence (P21397 1-527): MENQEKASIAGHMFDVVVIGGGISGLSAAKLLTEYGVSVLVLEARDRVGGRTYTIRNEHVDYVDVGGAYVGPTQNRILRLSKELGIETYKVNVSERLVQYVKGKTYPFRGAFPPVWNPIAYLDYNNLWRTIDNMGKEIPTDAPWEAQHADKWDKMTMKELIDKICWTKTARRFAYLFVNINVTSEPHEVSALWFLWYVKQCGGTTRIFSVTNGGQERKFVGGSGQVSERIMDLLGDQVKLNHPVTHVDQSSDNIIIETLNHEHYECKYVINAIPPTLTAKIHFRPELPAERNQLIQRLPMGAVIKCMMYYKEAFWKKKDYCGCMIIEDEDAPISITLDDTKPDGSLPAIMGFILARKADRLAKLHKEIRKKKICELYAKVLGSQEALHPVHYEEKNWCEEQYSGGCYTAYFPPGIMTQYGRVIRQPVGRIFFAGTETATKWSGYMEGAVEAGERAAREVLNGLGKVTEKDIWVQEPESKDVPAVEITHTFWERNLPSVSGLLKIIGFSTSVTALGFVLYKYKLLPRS
Protocol: (§1) MAO-A and MAO-B enzymes were purchased from Sigma-Aldrich and the inhibition assay was tested with Promega MAO-Glo™ Assay kit according to the manufacturer's protocol. The luminescent signals were detected using Envision (PerkinElmer). The test was carried out in triplicate. And the IC50 data was calculated using the software GraphPad Prism 5, and chosen the equation “sigmoidal dose–response (variable slope)” for curve fitting.

MAO-A [2] = target: T1, MAO-A; assay: biochemical; conditions: MAO-A, IC50, Table 1; mean ± SEM, eight-point experiments, three independent experiments
Protocol: as §1

[3] = target: Recombinant human LSD1 (172–852 aa) (Homo sapiens, UniProt O60341); assay: biochemical
Protocol: (§2) LSD1 or LSD2 enzyme inhibition assay was performed with Lance Ultra LSD1 Histone H3-Lysine 4 Demethylase Assay kit (Perkin Elmer) according to the manufacturer's protocol. […] The test was carried out in triplicate. And the IC50 data was calculated using the software GraphPad Prism 5, and chosen the equation “sigmoidal dose–response (variable slope)” for curve fitting.

full-length LSD2 = target: T2, full-length LSD2 (Homo sapiens, UniProt Q8NB78); assay: LSD2 inhibition assay (Lance Ultra kit, TR-FRET); format: biochemical
T2 sequence (Q8NB78 1-822): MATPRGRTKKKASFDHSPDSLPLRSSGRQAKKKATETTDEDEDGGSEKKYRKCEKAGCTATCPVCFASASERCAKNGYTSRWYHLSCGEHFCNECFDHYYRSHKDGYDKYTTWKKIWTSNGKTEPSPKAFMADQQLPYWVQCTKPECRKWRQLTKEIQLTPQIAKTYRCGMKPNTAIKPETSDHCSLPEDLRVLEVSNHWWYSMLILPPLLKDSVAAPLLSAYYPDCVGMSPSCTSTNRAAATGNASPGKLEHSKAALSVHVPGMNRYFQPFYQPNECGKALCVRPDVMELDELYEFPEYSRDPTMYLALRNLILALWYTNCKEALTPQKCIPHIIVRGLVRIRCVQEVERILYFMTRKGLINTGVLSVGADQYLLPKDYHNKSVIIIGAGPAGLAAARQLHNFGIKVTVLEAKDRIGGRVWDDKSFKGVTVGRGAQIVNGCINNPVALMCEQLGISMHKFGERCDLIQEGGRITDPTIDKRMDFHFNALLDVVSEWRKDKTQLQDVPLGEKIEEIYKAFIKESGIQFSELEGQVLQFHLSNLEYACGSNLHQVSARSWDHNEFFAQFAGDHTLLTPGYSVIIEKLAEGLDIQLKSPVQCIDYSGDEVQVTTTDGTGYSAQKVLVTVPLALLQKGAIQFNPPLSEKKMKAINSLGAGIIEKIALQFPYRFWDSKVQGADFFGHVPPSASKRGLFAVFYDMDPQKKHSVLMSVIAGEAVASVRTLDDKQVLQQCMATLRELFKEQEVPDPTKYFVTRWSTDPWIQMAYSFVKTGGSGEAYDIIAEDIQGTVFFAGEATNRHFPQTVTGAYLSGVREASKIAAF
Protocol: as §2

MAO-B = target: T3, MAO-B (Homo sapiens, UniProt P27338); assay: biochemical; conditions: MAO-B, IC50, Table 1; mean ± SEM, eight-point experiments, three independent experiments
T3 sequence (P27338 1-520): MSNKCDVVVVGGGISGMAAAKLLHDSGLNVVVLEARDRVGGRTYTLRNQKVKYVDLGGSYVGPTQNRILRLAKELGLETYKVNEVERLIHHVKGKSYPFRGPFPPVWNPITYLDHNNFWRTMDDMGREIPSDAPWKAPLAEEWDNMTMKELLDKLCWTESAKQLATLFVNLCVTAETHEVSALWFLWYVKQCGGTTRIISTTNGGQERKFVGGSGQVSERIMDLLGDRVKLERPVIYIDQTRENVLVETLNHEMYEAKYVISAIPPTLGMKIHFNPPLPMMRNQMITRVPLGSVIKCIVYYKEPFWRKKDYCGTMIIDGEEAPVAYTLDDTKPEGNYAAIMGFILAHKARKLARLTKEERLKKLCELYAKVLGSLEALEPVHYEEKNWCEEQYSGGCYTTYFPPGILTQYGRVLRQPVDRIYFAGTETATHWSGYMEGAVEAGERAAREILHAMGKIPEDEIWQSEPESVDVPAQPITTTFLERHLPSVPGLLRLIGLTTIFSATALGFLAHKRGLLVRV
Protocol: as §1

**Q.** How did the “selectivity index LSD1 vs. MAO-A in words” value (MAO-A [1]) turn out when `COc1cc(F)ccc1CN[C@H]1CC12CCc1ccccc12` (stereo in doubt) [Compound 18b, (2S)-N-(4-Fluoro-2-methoxybenzyl)-2′,3′-dihydrospiro[cyclopropane-1,1′-inden]-2-amine] was run?
**A.** The value was “low”.

**Q.** And the IC50 (MAO-A [2])?
**A.** The IC50 was 90 ± 10 nM.

**Q.** And the IC50 [3]?
**A.** Its IC50 is 15 ± 3 nM.

**Q.** And the IC50 (full-length LSD2)?
**A.** The IC50 was 490 ± 100 nM.

**Q.** What about the IC50 (MAO-B) of the same compound?
**A.** Its IC50 is 31000 ± 4000 nM.
